The target in the assay is T1, A2a receptors (Rattus norvegicus, UniProt P30543).
T1 construct: Displacement of specific [^3 H]; from tissue; host or cells: rat striatal membranes
The experiment in a line: radioligand binding, displacement of specific [3H]CGS 21680 binding in rat striatal membranes. The settings on record: for Ki: [3H]CGS 21680, rat striatal membranes, read-out: Ki rA2A.

Setting [1] is: Table 12, 10^-4 M, read-out: % inhibition rA2A.

Like-named read-outs stand apart in the source and are kept apart here. Bounds are passed on as bounds.

As a reminder, the Ki is a measure of affinity in units of concentration, obtained from inhibition or displacement.

T1 sequence (P30543 whole entry): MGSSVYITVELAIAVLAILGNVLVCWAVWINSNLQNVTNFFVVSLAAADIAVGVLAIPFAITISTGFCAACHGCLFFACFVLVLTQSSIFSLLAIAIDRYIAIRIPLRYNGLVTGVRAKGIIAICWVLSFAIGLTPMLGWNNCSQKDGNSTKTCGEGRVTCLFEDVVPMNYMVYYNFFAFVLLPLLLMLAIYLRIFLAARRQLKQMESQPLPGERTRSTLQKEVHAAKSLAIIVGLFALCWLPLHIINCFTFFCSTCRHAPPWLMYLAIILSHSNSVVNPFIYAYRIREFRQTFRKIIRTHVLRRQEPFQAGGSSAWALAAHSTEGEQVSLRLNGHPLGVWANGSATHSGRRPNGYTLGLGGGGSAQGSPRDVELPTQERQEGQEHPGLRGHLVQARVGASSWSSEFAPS
Description: ^b Displacement of specific [^3 H]
or as a percentage of specific binding displaced at 100 μM.

With “3,5-Diethyl 2,6-dimethyl-4-(2-thienyl)-1,4-(±)-dihydropyridine-3,5-dicarboxylate [Compound 114]”, under “Table 12, 10^-4 M”, the “% inhibition rA2A” value is reported as 36%.
On to `CCOC(=O)C1=C(c2ccccc2)NC(C)=C(C(=O)OC[C@H](OC)c2ccccc2)C1C#Cc1ccccc1` (mixture of isomers) [Compound 128, 3-(2-Methoxy-2-phenyl)-ethyl 5-Ethyl 2-methyl-4-phenylethynyl-6-phenyl-1.4-(±)-dihydropyridine-3,5-dicarboxylate], for which the inhibition at 100 µM under setting [1] was 33%.
For `CCOC(=O)C1=C(C)NC(C)=C(C(=O)OC)C1C` (racemic) [Compound 52, 3-Methyl-5-ethyl 2,4,6-trimethyl-1,4(R,S)-dihydropyridine-3,5-dicarboxylate], the Ki (Table 9) was > 100 µM.
Turning to `COCCOC(=O)C1=C(C)NC(C)=C(C(=O)OC)C1C` (racemic) [Compound 53, 3-methyl,5-(2-methoxy)ethyl 2,4,6-trimethyl-1,4(R,S)-dihydropyridine-3,5-dicarboxylate], the inhibition at 100 µM (Table 9, 10^-4 M, read-out: % of specific binding displaced rA2A) was 19%.
On to `COC(=O)C1=C(C)NC(C)=C(C(=O)OCc2ccccc2)C1C` (racemic) [Compound 54, 3-methyl,5-benzyl 2,4,6-trimethyl-1,4(R,S)-dihydropyridine-3,5-dicarboxylate], for which, under “Table 9”, the Ki is 9.72 µM.
With `CCOC(=O)C1=C(C)NC(C)=C(C(=O)OC)C1CC` (racemic) [Compound 56, 3-Methyl-5-ethyl-2,6-dimethyl-4-ethyl-1,4(R,S)-dihydropyridine-3,5-dicarboxylate], for the setting “Table 9”, the inhibition constant (Ki) worked out at 9.56 ± 2.69 µM.
`CCCC1C(C(=O)OC)=C(C)NC(C)=C1C(=O)OCC` (racemic) [Compound 57, 3-methyl,5-ethyl 2,6-dimethyl-4-propyl-1,4(R,S)-dihydropyridine-3,5-dicarboxylate]: where the note is “Table 9”, the inhibitory constant (Ki) was found to be 11.5 µM.
As for `CCOC(=O)C1=C(C)NC(C)=C(C(=O)OC)C1CC(C)CCC=C(C)C` (racemic) [Compound 58], the Ki (Table 9) is 23.1 µM.
The same measure, in the same setting: under `CCOC(=O)C1=C(C)NC(C)=C(C(=O)OC)C1c1ccccc1C(F)(F)F` (racemic) [Compound 68, 3-methyl-5-ethyl-2,6-dimethyl-4-(2-α,α,α-trifluoromethylphenyl)-1,4(R,S)-dihydropyridine-3,5-dicarboxylate] stands 20.7 µM; under `CCOC(=O)C1=C(C)NC(C)=C(C(=O)OC)C1c1ccc(OC)cc1` (racemic) [Compound 71, 3-methyl-5-ethyl-2,6-dimethyl-4-(4-methoxyphenyl)-1,4(R,S)-dihydropyridine-3,5-dicarboxylate], 12.7 ± 3.8 µM; under `CCOC(=O)C1=C(C)NC(C)=C(C(=O)OC)C1c1ccc(O)c(OC)c1` (racemic) [Compound 72, 3-methyl-5-ethyl-2,6-dimethyl-4-(4-hydroxy,3-methoxyphenyl)-1,4(R,S)-dihydropyridine-3,5-dicarboxylate], 56.8 ± 1.9 µM.
For the molecule `CCCCC1=C(C(=O)OCC)C(C)C(C(=O)OCC)=C(C)N1` (racemic) [Compound 77, 3,5-diethyl-2,4-dimethyl-6-butyl-1,4(R,S)-dihydropyridine-3,5-dicarboxylate], for the setting “Table 9”, the Ki stood at 38 ± 10.6 µM.
Turning to `CCOC(=O)C1=C(C)NC(c2ccccc2)=C(C(=O)OCC)C1C` (racemic) [Compound 78, 3,5-diethyl-2,4-dimethyl-6-phenyl-1,4(R,S)-dihydropyridine-3,5-dicarboxylate], the Ki (Table 9) was 35.9 µM.
With `CCOC(=O)C1=C(C)NC(c2ccccc2)=C(C(=O)OCC)C1C#Cc1ccccc1` (racemic) [Compound 98], the inhibition at 100 µM (read-out: % inhibition rA2A) came out at 26%.
Regarding `CCOC(=O)C1=C(C)NC(c2ccccc2)=C(C(=O)OCC)C1c1ccccc1` (racemic) [Compound 110, 3,5-Diethyl 2-methyl-4,6-diphenyl-1,4-(±)-dihydropyridine-3,5-dicarboxylate], the inhibition at 100 µM (Table 12, 10^-4 M, read-out: displacement of specific binding rA2A) is < 10%.
Regarding `CCOC(=O)C1=C(C)NC(c2ccccc2)=C(C(=O)OCC)C1c1ccccn1` (racemic) [Compound 111, 3,5-Diethyl 2-methyl-4-(2-pyridyl)-6-phenyl-1,4-(±)-dihydropridine-3,5-dicarboxylate], the inhibition at 100 µM under setting [1] is 25%.

These data come from patent US6066642A, “Dihydropyridine-, pyridine-, benzopyran-4-one- and triazoloquinazoline derivative, their preparation and their use as adenosine receptor antagonists” (priority 1998, dated 2000).
